Among the data in ChEMBL document CHEMBL3352273, “Synthesis and biological evaluation of novel thieno[2,3-d]pyrimidine-based FLT3 inhibitors as anti-leukemic agents” (Eur J Med Chem, 2014) are Retention_time, GI50 and IC50 values, retold here.

Some results are limits rather than exact numbers.

A short description of data set [1]: Retention time of the compound by HPLC method. It is filed as physicochemical.
Data set [2] deals with K562. Put plainly: cells. As to conditions: Homo sapiens, K562, 48 h; call rule not given here.
Data set [3] in a line: cells. Particulars: Homo sapiens, MV4-11, 48 h.
Description: Growth inhibition of human MV411 cells after 48 hrs by XTT assay
The nature of data set [4]: cells. Particulars: Homo sapiens, HL-60, 48 h.
Description: Growth inhibition of human HL60 cells after 48 hrs by XTT assay
Data set [5] in a line: cells. Particulars: Homo sapiens, THP-1, 48 h.
Description: Growth inhibition of human THP1 cells after 48 hrs by XTT assay
Data set [6] deals with T1, Receptor-type tyrosine-protein kinase FLT3 (Homo sapiens, UniProt P36888).
T1 sequence (P36888 whole entry): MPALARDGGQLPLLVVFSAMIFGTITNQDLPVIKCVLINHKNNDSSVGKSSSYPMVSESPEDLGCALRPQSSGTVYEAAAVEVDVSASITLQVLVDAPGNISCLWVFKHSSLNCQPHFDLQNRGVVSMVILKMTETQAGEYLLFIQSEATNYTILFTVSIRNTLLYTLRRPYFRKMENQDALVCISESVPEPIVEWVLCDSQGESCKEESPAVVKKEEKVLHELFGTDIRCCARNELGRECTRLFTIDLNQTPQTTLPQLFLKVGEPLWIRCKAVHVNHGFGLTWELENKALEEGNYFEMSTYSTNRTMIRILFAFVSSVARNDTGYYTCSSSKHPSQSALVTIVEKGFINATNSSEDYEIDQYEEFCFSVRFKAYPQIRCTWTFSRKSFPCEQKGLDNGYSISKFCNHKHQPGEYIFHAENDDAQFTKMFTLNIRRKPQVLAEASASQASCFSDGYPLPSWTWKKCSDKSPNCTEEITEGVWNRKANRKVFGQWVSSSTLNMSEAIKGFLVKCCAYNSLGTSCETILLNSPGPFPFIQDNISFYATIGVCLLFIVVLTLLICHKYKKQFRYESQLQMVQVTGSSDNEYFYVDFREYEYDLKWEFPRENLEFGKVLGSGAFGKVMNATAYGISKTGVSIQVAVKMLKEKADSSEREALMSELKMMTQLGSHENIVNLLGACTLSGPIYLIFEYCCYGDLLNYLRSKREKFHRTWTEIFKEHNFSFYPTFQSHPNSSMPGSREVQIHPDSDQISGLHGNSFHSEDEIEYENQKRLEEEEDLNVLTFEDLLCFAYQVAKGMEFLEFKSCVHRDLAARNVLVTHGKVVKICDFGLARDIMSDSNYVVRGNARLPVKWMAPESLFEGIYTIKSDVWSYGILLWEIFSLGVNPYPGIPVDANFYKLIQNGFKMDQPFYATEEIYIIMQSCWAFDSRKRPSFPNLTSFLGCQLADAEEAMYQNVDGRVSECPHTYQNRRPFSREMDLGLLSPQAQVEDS
Description: Inhibition of human FLT3 using 10 uM ATP

Consider `CC1=CC(=O)N(Nc2nc(-c3ccc(C)s3)nc3scc(-c4cccs4)c23)C1=O`, for which the Retention_time in data set [1] was 6.17 min. For the same compound, the GI50 (usually the concentration at which growth is held to half of that of the control) in data set [2] came out at 1920 nM; in data set [3], 775 nM; in data set [4] it was 403 nM; in data set [5], 2800 nM.
The compound `CC1=CC(=O)N(Nc2nc(-c3cccs3)nc3sc(C(N)=O)c(C)c23)C1=O` yielded a Retention_time in data set [1] of 5.72 min. In addition, the GI50 in data set [2] was determined as 2780 nM; in data set [3] it was 193 nM; in data set [4], 7800 nM; in data set [5] it was 2690 nM.
For the compound `CC1=CC(=O)N(Nc2nc(Cc3cccs3)nc3scc(-c4cccs4)c23)C1=O`, in data set [6], the IC50 (as a rule, the concentration that inhibits the measured activity by half) was “Not Active”. For the same compound, the GI50 in data set [2] is > 10000 nM; in data set [3] it was 2010 nM; in data set [4] it was 725 nM; in data set [5] it was 6260 nM.
`CC1=CC(=O)N(Nc2nc(-c3cccs3)nc3sc(-c4ccc(O)cc4)c(C)c23)C1=O` returned a Retention_time in data set [1] of 4.93 min. The GI50 stood at 145 nM in data set [2], 131 nM in data set [3], 221 nM in data set [4] and 600 nM in data set [5].
In the case of `CC1=CC(=O)N(Nc2nc(-c3cccs3)nc3scc(-c4cccs4)c23)C1=O`, the IC50 in data set [6] (read-out: IC50) was 69 nM. This compound also gave a Retention_time in data set [1] of 8.11 min. In addition, the GI50 in data set [2] was 5550 nM; in data set [3], 320 nM; in data set [4] it was 746 nM; in data set [5], 2670 nM.
With `COCc1sc2nc(-c3cccs3)nc(NN3C(=O)C=C(C)C3=O)c2c1C`, in data set [1], the Retention_time was 10.19 min. Further, the GI50 in data set [2] came out at 1260 nM; in data set [3], 115 nM; in data set [4], 266 nM; in data set [5] it was 1780 nM.
For `COC(=O)c1sc2nc(-c3cccs3)nc(NN3C(=O)C=C(C)C3=O)c2c1C`, in that order: 6.04 min, 30 nM, 86 nM, 136 nM and 172 nM.
`CC1=CC(=O)N(Nc2nc(-c3ccc(N(C)C)cc3)nc3scc(-c4ccccc4)c23)C1=O`: the IC50 result in data set [6] was “Not Active”. In data set [1], this compound yielded a Retention_time of 10.86 min. Moreover, the GI50 was found to be 1740 nM in data set [2], 755 nM in data set [3], 2190 nM in data set [4] and 1630 nM in data set [5].
Turning to `COc1ccc(-c2sc3nc(-c4cccs4)nc(NN4C(=O)C=C(C)C4=O)c3c2C)cc1`, the Retention_time in data set [1] is listed as 10.06 min. For the same compound, the GI50 in data set [2] turned out to be 154 nM; in data set [3], 135 nM; in data set [4], 624 nM; in data set [5] it was 902 nM.
For the compound `COC(=O)Cc1sc2nc(-c3cccs3)nc(NN3C(=O)C=C(C)C3=O)c2c1C`, the GI50 is 483 nM in data set [2], 91 nM in data set [3], 656 nM in data set [4] and 2900 nM in data set [5].
In turn, `CC1=CC(=O)N(Nc2nc(-c3cccs3)nc3sc(-c4ccc([N+](=O)[O-])cc4)c(C)c23)C1=O` had a Retention_time in data set [1] of 9.44 min. The GI50 is 1880 nM in data set [2], 112 nM in data set [3], 418 nM in data set [4] and 846 nM in data set [5].
As for `CC1=CC(=O)N(Nc2nc(-c3cccs3)nc3sc(Cc4ccc(O)cc4)c(C)c23)C1=O`, the GI50 in data set [2] is 880 nM; in data set [3] it was 103 nM; in data set [4] it was 213 nM; in data set [5], 948 nM.
For `CC1=CC(=O)N(Nc2nc(-c3cccs3)nc3sc(-c4cccc(O)c4)c(C)c23)C1=O` the same measures were 3 nM, 123 nM, 383 nM and 107 nM.
`CC1=CC(=O)N(Nc2nc(-c3cccs3)nc3sc(CO)c(C)c23)C1=O`: the Retention_time in data set [1] was 10.19 min. Moreover, the GI50 in data set [2] is 3840 nM; in data set [3] it was 92 nM; in data set [4], 712 nM; in data set [5] it was 2600 nM.
Consider `CC1=CC(=O)N(Nc2nc(-c3ccccc3)nc3scc(-c4cccs4)c23)C1=O`, for which the IC50 in data set [6] (read-out: IC50) worked out at 1600 nM. This compound had a Retention_time in data set [1] of 6.15 min. Moreover, the GI50 in data set [2] is 6300 nM; in data set [3], 836 nM; in data set [4], 862 nM; in data set [5], 3730 nM.
For the compound `NNc1nc(-c2cccs2)nc2scc(-c3cccs3)c12`, the 50% growth inhibitory concentration (GI50) in data set [2], in data set [3], in data set [4] and in data set [5] was > 10000 nM throughout.
`CC1=CC(=O)N(Nc2nc(-c3ccc(N)cc3)nc3scc(-c4ccccc4)c23)C1=O` had a Retention_time in data set [1] of 5.16 min. Moreover, the GI50 turned out to be 8160 nM in data set [2], 2100 nM in data set [3], 3710 nM in data set [4] and 4110 nM in data set [5].
In data set [1], `COc1sc2nc(-c3cccs3)nc(NN3C(=O)C=C(C)C3=O)c2c1C` registered a Retention_time of 5.61 min. In addition, the GI50 in data set [2] was determined as 1460 nM; in data set [3], 100 nM; in data set [4], 240 nM; in data set [5], 906 nM.
For the compound `COc1ccc(-c2nc(NN3C(=O)C=C(C)C3=O)c3c(-c4ccccc4)csc3n2)cc1`, the IC50 entry in data set [6] was “Not Active”. For the same compound, in data set [1], the Retention_time is reported as 9.76 min. Moreover, the GI50 worked out at 703 nM in data set [2], 407 nM in data set [3], 1310 nM in data set [4] and 2200 nM in data set [5].
Take `CC1=CC(=O)N(Nc2nc(Cc3ccccc3)nc3scc(-c4cccs4)c23)C1=O`: in data set [6], the IC50 entry was “Not Active”. The same compound yielded a Retention_time in data set [1] of 7.09 min. Moreover, the GI50 in data set [2] was found to be 3520 nM; in data set [3], 3830 nM; in data set [4], 1520 nM; in data set [5], 6660 nM.
Take `Cl.c1csc(-c2nc(N3CCNCC3)c3c(-c4cccs4)csc3n2)c1`: the Retention_time in data set [1] is given as 4.39 min. Further, the GI50 in data set [2], in data set [3], in data set [4] and in data set [5] was > 10000 nM in each case.
Consider `COc1cc2c(N3CCN(C(=O)Nc4ccc(OC(C)C)cc4)CC3)ncnc2cc1OCCCN1CCCCC1` [TANDUTINIB], for which the GI50 is > 10000 nM in data set [2], 8760 nM in data set [3], > 10000 nM in data set [4] and > 10000 nM in data set [5].
Regarding `CC1=CC(=O)N(Nc2nc(-c3cccs3)nc3scc(-c4ccccc4)c23)C1=O`, the Retention_time in data set [1] was 8.39 min. Besides, the GI50 in data set [2] came to 74 nM; in data set [3], 233 nM; in data set [4] it was 758 nM; in data set [5] it was 155 nM.
